Counter-ions that a name gives are not always drawn.
What was measured:
[1] = Hypothermia in mice after subcutaneous injection; assay type: in vivo; settings: Mus musculus, sc, dose depressing body temperature by 2° C. in two of four mice
Protocol: Starting with a dose of 30 mg/kg, four mice are injected subcutaneously with test compound. Twenty minutes later, the number of animals whose body temperature has decreased by 2° C. or more are counted. […] The time for last statistically significant drug affect on mean body temperature is indicated in minutes. […] Potency is given as mg/kg ED50 (dose required to depress temperature in two of four mice) as measured by Spearman-Karber statistics.

[2] = cited from earlier work
5-HT receptor = settings: J. Med. Chem., 30, 2105 (1987); cited from earlier work
dopamine receptors = settings: background; cited from earlier work
[3] = background, cited from earlier work

C=CCN[C@H]1CCc2cccc(OC)c2[C@H]1CC=C (relative stereo) [Example 26, Compound 1, Cis-(±)-1,2,3,4-Tetrahydro-8-methoxy-N,1-di-(2-pro-penyl)-2-naphthalenamine Hydrochloride]
ED50 [1]: 2.31 mg/kg

CN(C)C1CCc2ccc(O)cc2C1(C)C (stereo not drawn) [1,1-Dimethyl-2-(N,N-dimethylamino)-7-hydroxytetralin]
analgesic and intestinal activity ([2]; Chem. Ab., 79: 146294b): analgesic and intestinal movement accelerating actions

COc1cccc2c1CCC(NC1CC1)C2C (stereo not drawn) [1-methyl-2-(cyclopropylamino)-5-methoxytetralin]
local anesthetic activity ([2]; J. Pharm. Sci., 67, 880-82 (1978)): local anesthetic activity

CCCN(CCC)C1CCc2cccc(O)c2C1C (stereo not drawn) [8-hydroxy-1-methyl-2-(di-n-propylamino)tetralins]
5-HT receptor agonism (5-HT receptor): 5-HT receptor agonists

O=C1CC2(CCCC2)CC(=O)N1CCCCN1CCN(c2ncccn2)CC1 [Buspirone]
dopamine receptor activity (dopamine receptors): antagonizes dopamine receptors at the same dose it stimulates 5-HT1A receptors

CC1(C)CC(=O)N(CCCCN2CCN(c3ncccn3)CC2)C(=O)C1 [Gepirone]
dopamine receptor activity (dopamine receptors): also has dopamine antagonist properties
anxiolytic / anti-anxiety activity ([3]; clinical): clinically demonstrated anti-anxiety activities
effect on depressive endpoints ([3]; some patients): ameliorative effects on some depressive endpoints in some patients

CN1CCc2cccc3c2[C@H]1Cc1ccc(O)c(O)c1-3 [apomorphine]
dopamine receptor activity (dopamine receptors): able to activate the dopamine autoreceptors as well as the post synaptic dopamine receptors
